Laboratory results: PMC8125603, “Species-Specific Regulation of TRPM2 by PI(4,5)P2 via the Membrane Interfacial Cavity” (International Journal of Molecular Sciences, 2021)

Experiments:
[1] = molecular target: T1, hsTRPM2 (Homo sapiens, UniProt O94759); assay: inside-out patch clamp, HEK-293 cells, -60 mV, dose-response of current activation; type: biochemical
T1 construct: gene TRPM2; full-length wild-type cDNA in modified pIRES-hrGFP-2a, transient in HEK-293 cells; homotetramer; inside-out patches (C-terminal 3xHA tag only for surface expression tests)

[2] = molecular target: T2, nvTRPM2 (Nematostella vectensis, UniProt A7T1N0); assay: as above; type: biochemical
T2 construct: gene TRPM2; full-length wild-type cDNA in modified pIRES-hrGFP-2a, transient in HEK-293 cells; homotetramer; inside-out patches (C-terminal 3xHA tag only for surface expression tests)
T2 sequence (A7T1N0 whole entry): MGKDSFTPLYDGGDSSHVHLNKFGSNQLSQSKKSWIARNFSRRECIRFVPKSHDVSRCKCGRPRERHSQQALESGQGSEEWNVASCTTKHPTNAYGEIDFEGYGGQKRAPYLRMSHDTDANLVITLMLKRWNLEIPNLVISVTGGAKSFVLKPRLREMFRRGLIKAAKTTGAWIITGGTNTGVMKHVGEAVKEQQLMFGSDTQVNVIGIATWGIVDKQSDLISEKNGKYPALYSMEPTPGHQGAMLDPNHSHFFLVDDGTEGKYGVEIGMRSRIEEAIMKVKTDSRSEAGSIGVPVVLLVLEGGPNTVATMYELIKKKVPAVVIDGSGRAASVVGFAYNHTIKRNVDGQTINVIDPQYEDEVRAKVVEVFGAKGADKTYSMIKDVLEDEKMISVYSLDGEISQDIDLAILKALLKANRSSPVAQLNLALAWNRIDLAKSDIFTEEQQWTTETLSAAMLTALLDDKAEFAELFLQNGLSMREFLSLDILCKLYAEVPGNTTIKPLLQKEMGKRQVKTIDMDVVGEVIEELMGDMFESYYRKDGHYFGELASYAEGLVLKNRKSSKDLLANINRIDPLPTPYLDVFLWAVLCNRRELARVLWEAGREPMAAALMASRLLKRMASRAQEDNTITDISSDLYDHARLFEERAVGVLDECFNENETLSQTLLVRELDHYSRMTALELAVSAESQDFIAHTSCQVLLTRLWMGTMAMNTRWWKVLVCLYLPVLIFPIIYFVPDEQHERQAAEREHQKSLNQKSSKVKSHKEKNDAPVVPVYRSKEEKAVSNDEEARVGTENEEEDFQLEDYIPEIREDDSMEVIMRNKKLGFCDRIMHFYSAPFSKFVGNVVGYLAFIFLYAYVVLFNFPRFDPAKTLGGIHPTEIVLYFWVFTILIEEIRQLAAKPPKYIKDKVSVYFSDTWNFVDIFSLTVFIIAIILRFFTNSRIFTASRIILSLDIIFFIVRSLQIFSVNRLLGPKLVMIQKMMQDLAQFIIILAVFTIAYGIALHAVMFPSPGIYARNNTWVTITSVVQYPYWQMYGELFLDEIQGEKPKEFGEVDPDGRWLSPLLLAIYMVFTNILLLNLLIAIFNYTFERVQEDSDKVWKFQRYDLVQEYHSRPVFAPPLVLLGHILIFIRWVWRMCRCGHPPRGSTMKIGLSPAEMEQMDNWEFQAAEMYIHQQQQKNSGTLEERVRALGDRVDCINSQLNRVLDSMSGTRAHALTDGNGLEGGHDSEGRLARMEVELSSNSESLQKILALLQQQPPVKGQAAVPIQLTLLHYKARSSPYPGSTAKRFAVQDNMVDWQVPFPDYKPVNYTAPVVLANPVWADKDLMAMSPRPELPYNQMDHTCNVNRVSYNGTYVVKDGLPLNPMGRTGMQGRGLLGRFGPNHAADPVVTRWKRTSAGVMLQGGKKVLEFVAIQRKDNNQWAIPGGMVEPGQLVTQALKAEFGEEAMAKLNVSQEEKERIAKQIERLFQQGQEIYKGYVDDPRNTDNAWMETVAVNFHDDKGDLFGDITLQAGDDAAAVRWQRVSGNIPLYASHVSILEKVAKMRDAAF

T1 sequence (O94759 whole entry): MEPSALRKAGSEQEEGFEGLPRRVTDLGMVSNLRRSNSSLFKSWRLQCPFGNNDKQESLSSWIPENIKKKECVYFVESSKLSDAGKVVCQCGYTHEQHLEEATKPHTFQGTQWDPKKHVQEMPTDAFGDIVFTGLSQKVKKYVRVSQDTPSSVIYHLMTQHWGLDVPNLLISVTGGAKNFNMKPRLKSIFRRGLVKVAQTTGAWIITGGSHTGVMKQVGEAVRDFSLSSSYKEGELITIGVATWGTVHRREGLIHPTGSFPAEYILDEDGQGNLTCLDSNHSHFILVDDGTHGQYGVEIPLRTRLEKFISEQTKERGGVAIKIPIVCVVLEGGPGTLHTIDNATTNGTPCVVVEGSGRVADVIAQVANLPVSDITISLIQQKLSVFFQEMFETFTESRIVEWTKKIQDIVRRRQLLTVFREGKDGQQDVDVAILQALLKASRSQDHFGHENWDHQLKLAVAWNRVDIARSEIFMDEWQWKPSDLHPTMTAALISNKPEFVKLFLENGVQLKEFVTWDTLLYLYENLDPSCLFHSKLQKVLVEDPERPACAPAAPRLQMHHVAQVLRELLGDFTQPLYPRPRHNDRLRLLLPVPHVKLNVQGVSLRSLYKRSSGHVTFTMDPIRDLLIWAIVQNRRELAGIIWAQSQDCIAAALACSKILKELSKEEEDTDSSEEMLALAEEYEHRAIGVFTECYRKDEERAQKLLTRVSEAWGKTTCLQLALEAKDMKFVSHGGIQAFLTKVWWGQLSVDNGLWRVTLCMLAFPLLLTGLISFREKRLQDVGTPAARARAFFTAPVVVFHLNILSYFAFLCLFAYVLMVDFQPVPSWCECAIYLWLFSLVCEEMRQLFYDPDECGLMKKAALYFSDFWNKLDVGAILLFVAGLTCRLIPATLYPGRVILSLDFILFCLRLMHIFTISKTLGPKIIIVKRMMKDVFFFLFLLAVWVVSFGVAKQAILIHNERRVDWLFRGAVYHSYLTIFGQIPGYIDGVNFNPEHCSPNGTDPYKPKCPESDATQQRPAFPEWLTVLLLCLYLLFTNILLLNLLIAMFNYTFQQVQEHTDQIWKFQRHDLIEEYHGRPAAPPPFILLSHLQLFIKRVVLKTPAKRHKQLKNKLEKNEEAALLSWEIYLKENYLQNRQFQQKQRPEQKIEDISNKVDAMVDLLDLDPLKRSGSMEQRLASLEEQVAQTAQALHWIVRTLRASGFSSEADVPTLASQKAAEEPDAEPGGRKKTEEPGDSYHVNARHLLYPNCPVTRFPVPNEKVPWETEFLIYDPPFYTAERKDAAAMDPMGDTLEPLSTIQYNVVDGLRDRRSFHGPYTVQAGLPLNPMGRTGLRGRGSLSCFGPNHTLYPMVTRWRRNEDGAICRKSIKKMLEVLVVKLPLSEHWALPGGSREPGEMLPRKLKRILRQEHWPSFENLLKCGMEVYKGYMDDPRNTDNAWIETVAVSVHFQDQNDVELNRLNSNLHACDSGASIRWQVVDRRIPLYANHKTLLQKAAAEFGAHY

## CCCCCCCC(=O)OC[C@H](COP(=O)(O)O[C@@H]1[C@H](O)[C@H](O)[C@@H](OP(=O)(O)O)[C@H](OP(=O)(O)O)[C@H]1O)OC(=O)CCCCCCC [PIP2]
[1]
  EC50: 11.9 ± 1.1 µM
[2]
  EC50: 2.1 ± 0.2 µM
